Laboratory results as given in ChEMBL document CHEMBL5113480, “Discovery of novel biphenyl-substituted pyridone derivatives as potent non-nucleoside reverse transcriptase inhibitors with promising oral bioavailability” (Eur J Med Chem, 2022).

Key:
[1] = system: Human immunodeficiency virus 1; test: Antiviral activity against HIV-1 E138K mutant infected in human MT4 cells assessed as reduction in viral replication by MTT assay; assay type: functional, organism-based; settings: Human immunodeficiency virus 1, E138K mutant
[2] = Half life in Sprague-Dawley rat at 1 mg/kg,iv; assay type: ADME, organism-based; settings: in vivo
[3] = AUC (0 to t) in Sprague-Dawley rat at 1 mg/kg,iv; assay type: ADME, organism-based; design: dose 1 mg/kg, route iv; settings: in vivo
[4] = AUC (0 to infinity) in Sprague-Dawley rat at 5 mg/kg,po; assay type: ADME, organism-based; design: time infinity, dose 5 mg/kg, route po; settings: in vivo
[5] = MRT (0 to t) in Sprague-Dawley rat at 1 mg/kg,iv; assay type: ADME, organism-based; settings: in vivo
[6] = Cmax in Sprague-Dawley rat at 1 mg/kg,iv; assay type: ADME, organism-based; design: dose 1 mg/kg, route iv; settings: in vivo
Cytochrome P450 2C19 = Cytochrome P450 2C19 (Homo sapiens, UniProt P33261); test: Inhibition of CYP2C19 (unknown origin); assay type: ADME
[7] = Selectivity index, ratio of CC50 for cytotoxicity against human MT4 cells to EC50 of Anti-HIV activity against HIV-1 IIIB infected in human MT4 cells; assay type: toxicity, cell-based; settings: read-out: Ratio CC50/EC50
[8] = AUC (0 to infinity) in Sprague-Dawley rat at 1 mg/kg,iv; assay type: ADME, organism-based; design: time infinity, dose 1 mg/kg, route iv; settings: in vivo
[9] = system: Human immunodeficiency virus 1; test: Antiviral activity against HIV-1 ROD infected in human MT4 cells assessed as reduction in viral replication by MTT assay; assay type: functional, organism-based
[10] = system: Human immunodeficiency virus 1; test: Antiviral activity against HIV-1 K103N-Y181C mutant infected in human MT4 cells assessed as reduction in viral replication by MTT assay; assay type: functional, organism-based; settings: Human immunodeficiency virus 1, K103N-Y181C mutant
[11] = Acute toxicity in mouse at 1.2 g/Kg,IG assessed as heart damage by H and E staining based analysis; assay type: tissue-based; settings: in vivo, po, 1200 mg/kg
[12] = system: Human immunodeficiency virus 1; test: Antiviral activity against HIV-1 F227L-V106A mutant infected in human MT4 cells assessed as reduction in viral replication by MTT assay; assay type: functional, organism-based; settings: Human immunodeficiency virus 1, F227L-V106A mutant
[13] = system: Human immunodeficiency virus 1; test: Antiviral activity against HIV-1 L100I mutant infected in human MT4 cells assessed as reduction in viral replication by MTT assay; assay type: functional, organism-based; settings: Human immunodeficiency virus 1, L100I mutant
[14] = Acute toxicity in mouse at 1.2 g/Kg,IG assessed as change in body weight; settings: in vivo, po, 1200 mg/kg
[15] = Acute toxicity in mouse at 1.2 g/Kg,IG assessed as mouse death; settings: in vivo, po, 1200 mg/kg
[16] = target: Human immunodeficiency virus type 1 reverse transcriptase (Human immunodeficiency virus 1, UniProt Q72547); test: Inhibition of wild type HIV-1 Reverse transcriptase
[17] = system: Human immunodeficiency virus 1; test: Antiviral activity against HIV-1 IIIB infected in human MT4 cells assessed as reduction in viral replication by MTT assay; assay type: functional, organism-based; settings: Human immunodeficiency virus 1, IIIB
Cytochrome P450 3A4 [18] = target: T1, Cytochrome P450 3A4 (Homo sapiens, UniProt P08684); test: Inhibition of CYP3A4T (unknown origin); assay type: ADME
[19] = Acute toxicity in mouse at 1.2 g/Kg,IG assessed as behavioral abnormalities; settings: in vivo, po, 1200 mg/kg
Cytochrome P450 2D6 = Cytochrome P450 2D6 (Homo sapiens, UniProt P10635); test: Inhibition of CYP2D6 (unknown origin); assay type: ADME
[20] = Tmax in Sprague-Dawley rat at 1 mg/kg,iv; assay type: ADME, organism-based; settings: in vivo
[21] = MRT (0 to infinity) in Sprague-Dawley rat at 5 mg/kg,po; assay type: ADME, organism-based; settings: in vivo
[22] = system: Human immunodeficiency virus 1; test: Antiviral activity against HIV-1 Y188L mutant infected in human MT4 cells assessed as reduction in viral replication by MTT assay; assay type: functional, organism-based; settings: Human immunodeficiency virus 1, Y188L mutant
[23] = MRT (0 to t) in Sprague-Dawley rat at 5 mg/kg,po; assay type: ADME, organism-based; settings: in vivo
Cytochrome P450 2C9 = Cytochrome P450 2C9 (Homo sapiens, UniProt P11712); test: Inhibition of CYP2C9 (unknown origin); assay type: ADME
[24] = Half life in Sprague-Dawley rat at 5 mg/kg,po; assay type: ADME, organism-based; settings: in vivo
[25] = AUC (0 to t) in Sprague-Dawley rat at 5 mg/kg,po; assay type: ADME, organism-based; design: dose 5 mg/kg, route po; settings: in vivo
[26] = MRT (0 to infinity) in Sprague-Dawley rat at 1 mg/kg,iv; assay type: ADME, organism-based; settings: in vivo
[27] = Clearance in Sprague-Dawley rat at 1 mg/kg,iv; assay type: ADME, organism-based; settings: in vivo
[28] = Clearance in Sprague-Dawley rat at 5 mg/kg,po; assay type: ADME, organism-based; settings: in vivo
[29] = Acute toxicity in mouse at 1.2 g/Kg,IG assessed as spleen damage by H and E staining based analysis; settings: in vivo, po, 1200 mg/kg
[30] = Acute toxicity in mouse at 1.2 g/Kg,IG assessed as kidney damage by H and E staining based analysis; settings: in vivo, po, 1200 mg/kg
[31] = system: Human immunodeficiency virus 1; test: Antiviral activity against HIV-1 K103N mutant infected in human MT4 cells assessed as reduction in viral replication by MTT assay; assay type: functional, organism-based; settings: Human immunodeficiency virus 1, K103N mutant
[32] = Acute toxicity in mouse at 1.2 g/Kg,IG assessed as liver damage by H and E staining based analysis; settings: in vivo, po, 1200 mg/kg
[33] = system: Human immunodeficiency virus 1; test: Antiviral activity against HIV-1 Y181C mutant infected in human MT4 cells assessed as reduction in viral replication by MTT assay; assay type: functional, organism-based; settings: Human immunodeficiency virus 1, Y181C mutant
[34] = Acute toxicity in mouse at 1.2 g/Kg,IG assessed as lung damage by H and E staining based analysis; settings: in vivo, po, 1200 mg/kg
[35] = Acute toxicity in mouse at 1.2 g/Kg,IG assessed as brain damage by H and E staining based analysis; assay type: tissue-based; settings: in vivo, po, 1200 mg/kg
[36] = Cmax in Sprague-Dawley rat at 5 mg/kg,po; assay type: ADME, organism-based; design: dose 5 mg/kg, route po; settings: in vivo
[37] = Tmax in Sprague-Dawley rat at 5 mg/kg,po; assay type: ADME, organism-based; settings: in vivo
[38] = target: Voltage-gated inwardly rectifying potassium channel KCNH2 (Homo sapiens, UniProt Q12809); test: Inhibition of human ERG potassium channel expressed in CHO cells by automated patch clamp electrophysiological assay; assay type: toxicity, cell-based
Cytochrome P450 1A2 = target: T2, Cytochrome P450 1A2 (Homo sapiens, UniProt P05177); test: Inhibition of CYP1A2 (unknown origin); assay type: ADME
T2 sequence (P05177 whole entry): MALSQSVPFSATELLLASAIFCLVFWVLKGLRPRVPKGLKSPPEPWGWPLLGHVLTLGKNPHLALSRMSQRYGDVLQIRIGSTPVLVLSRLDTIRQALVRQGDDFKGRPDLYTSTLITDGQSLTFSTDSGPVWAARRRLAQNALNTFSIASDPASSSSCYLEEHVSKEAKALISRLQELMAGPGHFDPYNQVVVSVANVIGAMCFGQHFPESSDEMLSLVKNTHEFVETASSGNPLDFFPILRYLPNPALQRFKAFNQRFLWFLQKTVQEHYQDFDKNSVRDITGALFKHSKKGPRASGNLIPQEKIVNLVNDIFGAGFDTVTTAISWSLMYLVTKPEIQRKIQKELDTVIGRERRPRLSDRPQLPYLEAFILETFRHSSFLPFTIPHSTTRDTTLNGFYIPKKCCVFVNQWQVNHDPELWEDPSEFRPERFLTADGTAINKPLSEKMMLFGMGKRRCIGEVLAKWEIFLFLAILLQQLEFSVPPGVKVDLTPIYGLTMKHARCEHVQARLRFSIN

Cytochrome P450 3A4 [39] = target: T1, Cytochrome P450 3A4; test: Inhibition of CYP3A4M (unknown origin); assay type: ADME
[40] = Cytotoxicity against human MT4 cells assessed as reduction on cell growth by MTT assay; assay type: toxicity, cell-based

T1 sequence (P08684 whole entry): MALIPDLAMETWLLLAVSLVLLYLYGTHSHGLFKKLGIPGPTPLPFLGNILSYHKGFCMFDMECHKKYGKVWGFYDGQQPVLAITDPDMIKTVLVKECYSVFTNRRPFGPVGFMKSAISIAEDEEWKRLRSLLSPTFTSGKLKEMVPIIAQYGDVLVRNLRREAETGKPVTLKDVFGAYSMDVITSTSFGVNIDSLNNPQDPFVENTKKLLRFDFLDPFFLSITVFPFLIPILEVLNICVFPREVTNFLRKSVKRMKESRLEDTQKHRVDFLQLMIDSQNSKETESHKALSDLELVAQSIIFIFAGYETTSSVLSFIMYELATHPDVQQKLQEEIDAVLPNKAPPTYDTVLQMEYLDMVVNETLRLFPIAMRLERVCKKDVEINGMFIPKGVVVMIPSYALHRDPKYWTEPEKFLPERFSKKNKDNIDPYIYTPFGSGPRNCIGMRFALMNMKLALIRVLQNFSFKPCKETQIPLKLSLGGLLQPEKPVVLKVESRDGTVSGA
Chain of Voltage-gated inwardly rectifying potassium channel KCNH2 (Q12809 whole entry): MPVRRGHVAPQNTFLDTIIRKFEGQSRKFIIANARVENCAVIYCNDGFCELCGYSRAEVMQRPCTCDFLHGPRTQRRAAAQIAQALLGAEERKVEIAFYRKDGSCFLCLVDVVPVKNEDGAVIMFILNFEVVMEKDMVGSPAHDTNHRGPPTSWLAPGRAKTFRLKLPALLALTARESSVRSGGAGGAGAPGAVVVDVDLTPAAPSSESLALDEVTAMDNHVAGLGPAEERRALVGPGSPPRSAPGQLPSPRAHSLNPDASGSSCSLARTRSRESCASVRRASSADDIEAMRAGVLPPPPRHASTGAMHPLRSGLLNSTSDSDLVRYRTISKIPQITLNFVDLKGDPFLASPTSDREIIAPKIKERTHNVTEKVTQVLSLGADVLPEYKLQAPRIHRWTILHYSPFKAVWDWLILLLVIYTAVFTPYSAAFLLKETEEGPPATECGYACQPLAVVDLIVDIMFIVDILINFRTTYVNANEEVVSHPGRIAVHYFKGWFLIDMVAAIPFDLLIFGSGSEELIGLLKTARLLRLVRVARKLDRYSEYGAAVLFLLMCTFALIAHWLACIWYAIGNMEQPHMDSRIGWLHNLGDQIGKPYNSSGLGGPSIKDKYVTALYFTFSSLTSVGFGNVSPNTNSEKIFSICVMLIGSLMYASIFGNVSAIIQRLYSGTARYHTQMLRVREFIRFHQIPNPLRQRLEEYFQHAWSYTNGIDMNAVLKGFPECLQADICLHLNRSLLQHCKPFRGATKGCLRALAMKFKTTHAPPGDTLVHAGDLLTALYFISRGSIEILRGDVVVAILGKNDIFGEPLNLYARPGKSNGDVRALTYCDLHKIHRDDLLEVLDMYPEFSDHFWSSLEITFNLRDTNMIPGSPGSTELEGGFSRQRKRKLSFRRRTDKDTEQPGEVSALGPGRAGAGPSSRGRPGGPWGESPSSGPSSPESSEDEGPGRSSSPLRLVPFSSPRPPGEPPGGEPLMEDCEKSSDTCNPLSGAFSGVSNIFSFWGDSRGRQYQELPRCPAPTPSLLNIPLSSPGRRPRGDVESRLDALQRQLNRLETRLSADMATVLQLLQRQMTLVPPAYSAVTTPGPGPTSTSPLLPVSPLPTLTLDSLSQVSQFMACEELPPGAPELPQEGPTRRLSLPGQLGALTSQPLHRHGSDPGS
Chain of Cytochrome P450 2C9 (P11712 whole entry): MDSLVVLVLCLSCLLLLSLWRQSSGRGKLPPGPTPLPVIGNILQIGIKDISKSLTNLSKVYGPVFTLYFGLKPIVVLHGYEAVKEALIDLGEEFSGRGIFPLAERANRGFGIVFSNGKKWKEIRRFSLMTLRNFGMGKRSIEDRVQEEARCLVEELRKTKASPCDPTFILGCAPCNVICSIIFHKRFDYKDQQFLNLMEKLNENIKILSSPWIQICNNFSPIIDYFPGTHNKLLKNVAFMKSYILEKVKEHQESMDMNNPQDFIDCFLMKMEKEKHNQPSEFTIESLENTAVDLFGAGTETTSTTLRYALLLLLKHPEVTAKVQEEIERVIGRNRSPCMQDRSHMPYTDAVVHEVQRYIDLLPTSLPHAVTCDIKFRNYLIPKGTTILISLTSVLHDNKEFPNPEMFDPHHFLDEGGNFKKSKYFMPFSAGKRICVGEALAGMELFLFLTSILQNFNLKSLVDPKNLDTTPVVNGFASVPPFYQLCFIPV
Chain of Cytochrome P450 2D6 (P10635 whole entry): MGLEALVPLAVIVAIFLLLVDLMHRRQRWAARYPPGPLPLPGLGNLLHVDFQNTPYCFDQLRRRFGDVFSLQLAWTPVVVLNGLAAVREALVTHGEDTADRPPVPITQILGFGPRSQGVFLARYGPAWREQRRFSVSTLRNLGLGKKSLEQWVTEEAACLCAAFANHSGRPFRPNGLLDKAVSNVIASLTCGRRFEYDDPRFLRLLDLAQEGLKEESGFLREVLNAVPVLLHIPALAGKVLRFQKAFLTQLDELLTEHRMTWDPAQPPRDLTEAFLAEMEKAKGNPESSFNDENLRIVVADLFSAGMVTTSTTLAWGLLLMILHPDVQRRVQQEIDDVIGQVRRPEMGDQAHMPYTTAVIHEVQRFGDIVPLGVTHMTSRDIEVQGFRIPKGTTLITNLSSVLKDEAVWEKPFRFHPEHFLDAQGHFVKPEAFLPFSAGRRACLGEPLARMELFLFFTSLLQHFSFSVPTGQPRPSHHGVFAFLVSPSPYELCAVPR
Chain of Cytochrome P450 2C19 (P33261 whole entry): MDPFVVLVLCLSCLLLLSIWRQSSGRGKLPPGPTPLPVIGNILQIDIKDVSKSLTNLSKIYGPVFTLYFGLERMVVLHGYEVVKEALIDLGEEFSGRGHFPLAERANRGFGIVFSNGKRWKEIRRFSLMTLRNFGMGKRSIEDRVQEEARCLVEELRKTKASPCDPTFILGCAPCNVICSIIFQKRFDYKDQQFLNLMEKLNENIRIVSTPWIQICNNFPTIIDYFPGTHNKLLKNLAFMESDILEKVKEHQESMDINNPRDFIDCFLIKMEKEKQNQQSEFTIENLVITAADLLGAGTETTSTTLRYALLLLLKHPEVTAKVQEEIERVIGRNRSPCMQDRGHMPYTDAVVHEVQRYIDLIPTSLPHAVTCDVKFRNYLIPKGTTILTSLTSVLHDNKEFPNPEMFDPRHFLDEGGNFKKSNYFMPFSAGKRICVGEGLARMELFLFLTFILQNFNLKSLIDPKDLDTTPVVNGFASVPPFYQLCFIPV

## Cc1cccc(-c2cc(C#N)cc(Oc3c(C(F)(F)F)ccn(Cc4n[nH]c(=O)n4C)c3=O)c2)c1
[1]
  EC50: 25 nM
[2]
  half-life: 1.9 h
[3]
  AUC(0-t): 892 ng·h/mL
[4]
  AUC(0-inf): 6590 ng·h/mL
[5]
  MRT last: 2.03 h
[6]
  Cmax: 469 ng/mL
Cytochrome P450 2C19
  IC50: 28600 nM
[7]
  selectivity ratio: 2020
[8]
  AUC(0-inf): 940 ng·h/mL
[9]
  EC50: > 35000 nM
[10]
  EC50: 260 nM
[11]
  Activity: Non-Toxic
[12]
  EC50: 27500 nM
[13]
  EC50: 24 nM
[14]
  Activity: Non-Toxic
[15]
  Activity: Non-Toxic
[16]
  IC50: 41 nM
[17]
  EC50: 13 nM
Cytochrome P450 3A4 [18]
  IC50: 25300 nM
[19]
  Activity: Non-Toxic
Cytochrome P450 2D6
  IC50: > 50000 nM
[20]
  Tmax: 4.8 min
[21]
  MRT inf: 13.9 h
[22]
  EC50: 760 nM
[23]
  MRT last: 6.79 h
Cytochrome P450 2C9
  IC50: 38300 nM
[24]
  half-life: 8.45 h
[25]
  AUC(0-t): 4980 ng·h/mL
[26]
  MRT inf: 2.48 h
[27]
  clearance: 17.9 mL/min/kg
[28]
  CL/F: 13.2 mL/min/kg
[29]
  Activity: Non-Toxic
[30]
  Activity: Non-Toxic
[31]
  EC50: 13 nM
[32]
  Activity: Non-Toxic
[33]
  EC50: 58 nM
[34]
  Activity: Non-Toxic
[35]
  Activity: Non-Toxic
[36]
  Cmax: 583 ng/mL
[37]
  Tmax: 6.67 h
[38]
  IC50: > 200000 nM
Cytochrome P450 1A2
  IC50: > 50000 nM
Cytochrome P450 3A4 [39]
  IC50: > 50000 nM

## Cn1c(Cn2ccc(C(F)(F)F)c(Oc3cc(Cl)cc(C#N)c3)c2=O)n[nH]c1=O [DORAVIRINE]
[1]
  EC50: 7.5 nM
[7]
  selectivity ratio: 22600
[9]
  EC50: > 35000 nM
[10]
  EC50: 142 nM
[40]
  CC50: 293000 nM
[12]
  EC50: 17400 nM
[13]
  EC50: 6.6 nM
[16]
  IC50: 44 nM
[22]
  EC50: 500 nM
[31]
  EC50: 42 nM
[33]
  EC50: 25 nM
[38]
  IC50: 88000 nM
